Literature values in paper PMC10933920, “Synthesis and Anti-Inflammatory Activity of Ferulic Acid-Sesquiterpene Lactone Hybrids” (Molecules, 2024).

Tested on: primary lung fibroblasts derived from patients with IPF and non-diseased controls
Design: method as in PMID 33730605
Conditions: unstimulated fibroblasts, 0–10 µM ACT001; cited from earlier work

## CC1=C2CC[C@@](C)(O)[C@@H]2[C@H]2OC(=O)[C@@H](CN(C)C)[C@@H]2CC1 [ACT001]
  IL-6 production: inhibited IL-6
